The values below come from PubChem BioAssay AID2305 (GlaxoSmithKline (GSK), 2010).

Values joined by “and” are separate entries in the source; they are usually repeats but may differ in a detail not shown here. Identical values can stand only once.

In this assay the test system is P. falciparum 3D7 growth, pLDH absorbance. The assay is described as follows: P. falciparum 3D7 growth inhibition, dose response, strain 3D7 (AID 2305).

As for `O=C(NCc1ccccn1)C(c1cc2ccccc2o1)N1CCN(C(c2ccccc2)c2ccccc2)CC1` (stereo not drawn), the half-inhibitory concentration (IC50) worked out at 860 nM. The same measure for `Cc1cc(=O)c2cc(-c3ccc(OC(F)(F)F)cc3)ccc2[nH]1`: 480 nM. For `CO/C(=C\C=C\c1cc2cc(Cl)c(Cl)cc2[nH]1)C(=O)N[C@H]1CN2CCC1CC2`, the IC50 is 1210 nM. Regarding `COc1ccc(C(=O)[C@H]2C[C@@H]2CN(C)CCC(O)c2ccc(Cl)c(Cl)c2)cc1` (stereo partly drawn), the IC50 came out at 870 nM.

`CC1CC(C)CN(S(=O)(=O)c2cc(C(=O)Nc3cccc([N+](=O)[O-])c3)ccc2Br)C1` (stereo not drawn) came in with an IC50 of 900 nM. The same measure for `N#Cc1ccc(NC(=NCCc2c[nH]c3ccccc23)Nc2ccc(-c3ccccc3)cc2)c(O)c1`: 340 nM; for `CCc1cn(C)c2c(N3CCCC3=O)cc(C(=O)N[C@@H](Cc3ccccc3)[C@H](O)CNC(C)(C)CCCC(C)C)cc12`: 490 nM; for `Cc1ccc2nc(-c3ccccc3Nc3ccnc4cc(-c5nccs5)ccc34)[nH]c2c1`: 190 nM. The same measure for `COc1cccc(CN2CCCC(CCC(=O)Nc3ccc(C(F)(F)F)cc3)C2)c1O` (stereo not drawn): 750 nM. The same measure for `CCOc1ccc(CNCCCCCCNCc2ccc(OCC)c3ccccc23)c2ccccc12`: 450 nM. Take `CCc1c(CCNCC/C=C/CCNCCc2ccc(OC)c(OC)c2CC)ccc(OC)c1OC`: the IC50 amounted to 770 nM.

In the case of `O=C(Cc1cnc[nH]1)Nc1ccc(-c2cccc(-c3nc4ccc(F)cc4[nH]3)c2)cc1`, the concentration for half-maximal inhibition (IC50) was determined as 800 nM.

Molecule `O=c1sn(-c2csc3ccccc23)c2ccccc12` had a 50% inhibitory concentration (IC50) of 340 nM. The molecule `CCC(C)NCCC(c1ccccc1)c1ccccc1O` (stereo not drawn) gave a concentration for half-maximal inhibition (IC50) of 790 nM. `COc1ccc2nccc([C@@H](O)CN3CCC(NCCOc4cc(F)cc(F)c4)CC3)c2c1` registered a half-inhibitory concentration (IC50) of 160 nM. For `O=C(Nc1cc(C(F)(F)F)cc(C(F)(F)F)c1)c1cccc([N+](=O)[O-])c1` the value was 890 nM; for `c1ccc(CN2CCC(NCc3ccccc3-c3cccc(CNCc4ccc5c(c4)OCO5)c3)CC2)cc1`, 570 nM; for `O=[N+]([O-])c1cccc(CNCC2CCN(Cc3ccc(-c4ccccc4)cc3)CC2)c1`, 250 nM.

`Cc1cnc(C(=O)Nc2cccc(-c3ccc(-c4nc5ccc(F)cc5[nH]4)cc3)c2)cn1` yielded an IC50 of 640 nM. For the molecule `N#Cc1ccc(N(CC(=O)NCCc2ccc(F)cc2)CC2CC2)c2ccccc12`, the concentration for half-maximal inhibition (IC50) was found to be 930 nM. For the molecule `Cc1cccc2[nH]c(-c3ccc(-c4cccc(NC(=O)c5cnn6cccnc56)c4)cc3)nc12`, the IC50 was found to be 870 nM.

`CC[C@H]1CN2CC[C@H]1C[C@H]2[C@H](O)c1cc(N2CCC3CCCCC3C2)nc2ccc(OC)cc12` (stereo partly drawn) had an IC50 of 170 nM. As to `O=C(NCc1ccc(F)cc1)Nc1ccc(-c2cccc(-c3nc4ccc(F)cc4[nH]3)c2)cc1`, the IC50 worked out at 1120 nM. With `OC1CCCN(Cc2ccc(-c3ccc(-c4nc5ccccc5[nH]4)cc3)cc2)C1` (stereo not drawn), the IC50 came out at 840 nM. Molecule `Cc1cc(N[C@@H](Cc2ccccc2)C(=O)NCCc2ccccc2)nc(NCC2CCCCC2)n1` registered an IC50 of 920 nM.

Consider `CCCCCN1CCCC1CNS(=O)(=O)c1cccc(C(=O)Nc2cccc(C#N)c2)c1` (stereo not drawn), for which the IC50 came out at 980 nM. Regarding `Cc1nc(N)nc(N)c1OCc1ccc(Cl)c(Cl)c1`, the 50% inhibitory concentration (IC50) was found to be 130 nM. With `CC(=O)c1ccc(-c2ccc(C(=O)NCCCCN3CCC(c4ccc5c(c4OCC(N)=O)CCCC5)CC3)cc2)s1`, the half-inhibitory concentration (IC50) worked out at 890 nM. Take `CCCCCCN1CCC(NCc2ccc(CN(C)C)cc2)CC1`: the IC50 was 1270 nM. For `Cc1cc(C(=O)OCC(=O)Nc2c(C)n(C)n(-c3ccccc3)c2=O)c(C)n1-c1ccc(F)cc1` the value was 50 nM. For `CCOc1cc(CC)ccc1C1CCN(CCN2CCC(NC(=O)c3ccc(-c4ccc(C(C)=O)cc4)cc3)CC2)CC1` the value was 230 nM.

In the case of `COc1ccc([N+](=O)[O-])cc1N(Cc1ccccc1-c1ccccc1)S(=O)(=O)c1ccc(C(F)(F)F)cc1`, the IC50 came out at 780 nM. The molecule `Brc1cc2c(cc1C=NNc1nc(Nc3ccccc3)nc(Nc3ccccc3)n1)OCO2` showed an IC50 of 800 nM. The same measure for `COc1ccc(C(=O)CCC(=O)N(Cc2ccc(-c3ccc(CNCCc4ccc(S(C)(=O)=O)cc4)cn3)cc2)C2C[C@@H]3CC[C@H]2C3)cc1F` (stereo partly drawn): 930 nM; for `O=C(Nc1ccccc1)Nc1cccc(-c2cccc(-c3nc4ccc(F)cc4[nH]3)c2)c1`: 180 nM. The same measure for `CC(=O)Nc1ncc(C(=O)Nc2cccc(-c3cccc(-c4nc5ccc(F)cc5[nH]4)c3)c2)s1`: 450 nM; for `Cc1ccn2c(C(=O)N3CCN(c4cccc5c4nc(-c4ccoc4)n5Cc4ccccn4)CC3)c(C)nc2c1`: 200 nM.

The molecule `CS(=O)(=O)Cc1ccc(Nc2ncc(Cl)c(Nc3cccnc3C(N)=O)n2)cc1` had an IC50 of 870 nM. The same measure for `CC(=O)N(C)c1cccc(C(=O)Nc2cccc(-c3cccc(-c4nc5ccc(C(F)(F)F)cc5[nH]4)c3)c2)c1`: 240 nM; for `COC(=O)c1sccc1NC(=S)NC1CCC(CN2CCC(c3c[nH]c4ccccc34)CC2)CC1` (stereo not drawn): 920 nM and 570 nM; for `Cc1cc(Nc2ccc(Cl)c(Cl)c2)n2nc(C)nc2n1`: 260 nM. The same measure for `Cc1cc(C(F)(F)F)nn1-c1ccc(NC(=O)c2ccco2)cc1`: 730 nM; for `O=C(CSc1nc(-c2ccccc2Cl)ns1)Nc1ccc2c(c1)OCO2`: 990 nM.
